Experimental data as given in PMC10984466, “Structure-based identification of salicylic acid derivatives as malarial threonyl tRNA-synthetase inhibitors” (PLOS ONE, 2024).
Where two headings read alike, the source gives them in different places.

Biological target: T1, PfThrRS (Plasmodium falciparum, UniProt Q8IIA4)
T1 construct: made in house; host or cells: E. coli BL21(DE3)
T1 sequence (Q8IIA4 21-1013): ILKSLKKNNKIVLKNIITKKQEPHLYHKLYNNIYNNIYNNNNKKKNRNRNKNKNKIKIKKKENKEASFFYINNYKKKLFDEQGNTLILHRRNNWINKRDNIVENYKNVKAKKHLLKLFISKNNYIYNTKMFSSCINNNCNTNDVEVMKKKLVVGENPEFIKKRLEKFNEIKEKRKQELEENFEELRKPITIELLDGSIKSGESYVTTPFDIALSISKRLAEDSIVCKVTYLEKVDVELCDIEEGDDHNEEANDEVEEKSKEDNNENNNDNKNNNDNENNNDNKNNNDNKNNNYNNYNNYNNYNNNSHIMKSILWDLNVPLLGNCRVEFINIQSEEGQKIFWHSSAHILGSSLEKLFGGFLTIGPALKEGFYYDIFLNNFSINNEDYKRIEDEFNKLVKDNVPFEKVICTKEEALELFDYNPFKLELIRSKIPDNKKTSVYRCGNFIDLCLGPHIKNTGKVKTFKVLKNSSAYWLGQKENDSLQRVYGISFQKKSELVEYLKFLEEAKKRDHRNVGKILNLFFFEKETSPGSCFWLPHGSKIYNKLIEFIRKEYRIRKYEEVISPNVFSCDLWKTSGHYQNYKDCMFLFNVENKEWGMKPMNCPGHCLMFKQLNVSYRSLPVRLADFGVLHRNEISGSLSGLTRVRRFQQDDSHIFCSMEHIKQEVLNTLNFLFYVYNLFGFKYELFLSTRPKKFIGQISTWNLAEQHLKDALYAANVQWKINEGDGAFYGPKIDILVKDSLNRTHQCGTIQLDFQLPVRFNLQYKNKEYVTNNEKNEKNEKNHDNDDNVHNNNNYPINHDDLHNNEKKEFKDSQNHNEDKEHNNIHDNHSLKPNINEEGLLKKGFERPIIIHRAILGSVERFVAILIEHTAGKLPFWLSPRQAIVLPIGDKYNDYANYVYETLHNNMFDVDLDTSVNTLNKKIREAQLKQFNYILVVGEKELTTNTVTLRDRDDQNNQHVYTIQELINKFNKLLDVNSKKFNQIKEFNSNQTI
Assay: In vitro PfThrRS inhibition assay (aminoacylation activity, ATP consumption by Kinase-Glo luminescence)
Type: biochemical
Settings: for LE (ligand efficiency): PfThrRS inhibitors, Fig 4 and text
Protocol: The bioassay protocol was adapted from the literature. The aminoacylation activity of PfThrRS in the presence of compounds was determined by measuring ATP consumption in the enzymatic reaction by using recombinant PfThrRS and P. falciparum cell extract as a source of t-RNA. ATP consumption was determined by Kinase-Glo® Reagent (Promega Inc.). The luminescence was read on a Tecan Infinite M1000 microplate reader. The inhibitory rate was measured in three independent assays. Borrelidin was obtained from commercial sources and used as a reference compound.

[1] = Table SI1, adenosine binding subsite substituent
[2] = Table SI1, adenosine binding subsite substituent, fraction of PfThrRS inhibited at 100 µM, read-out: ThrRS inhibition @100 µM, %
[3] = Table SI3, zinc ion binding group, fraction of PfThrRS inhibited at 100 µM, read-out: ThrRS inhibition @100 µM, %
[4] = Table SI2, arginine binding group, fraction of PfThrRS inhibited at 100 µM, read-out: ThrRS inhibition @100 µM, %

IC50 [1] [µM]	inhibition at 100 µM [2] [%]	SMILES	other results
13.1 ± 1.4	100	O=C(O)c1cc(S(=O)(=O)Nc2ccccc2)ccc1O [7a, 2-Hydroxy-5-(N-phenylsulfamoyl)benzoic acid]	LE (ligand efficiency) (listed as 7): 0.34
		COC(=O)c1cc(S(=O)(=O)Nc2ccccc2)ccc1O [7b, Methyl 2-hydroxy-5-(N-phenylsulfamoyl)benzoate]	inhibition at 100 µM [3]: 19 ± 8%
		O=C(NO)c1cc(S(=O)(=O)Nc2ccccc2)ccc1O [7c, N,2-dihydroxy-5-(N-phenylsulfamoyl)benzamide]	inhibition at 100 µM [3]: 16 ± 7%
		O=C(O)c1cc(S(=O)(=O)Nc2ccccc2)ccc1S [7d, 2-Mercapto-5-(N-phenylsulfamoyl)benzoic acid]	inhibition at 100 µM [3]: 16 ± 11%
		COc1ccc(S(=O)(=O)Nc2ccccc2)cc1C(=O)O [7e]	inhibition at 100 µM [3]: 11 ± 7%
		O=C(O)c1cccc(S(=O)(=O)Nc2ccccc2)c1 [7f]	inhibition at 100 µM [3]: 2 ± 4%
		O=C(O)c1cc(S(=O)(=O)Nc2ccccc2)ccc1F [7g]	inhibition at 100 µM [3]: 0%
		O=C(O)CC(O)(Cc1ccccc1)c1ccc(O)c(C(=O)O)c1 (stereo not drawn) [7h, 5-(1-Carboxy-2-hydroxy-3-phenylpropan-2-yl)-2-hydroxybenzoic acid]	inhibition at 100 µM [4]: 10 ± 8%
		O=C(O)c1cc(C(Nc2ccccc2)C(=O)O)ccc1O (stereo not drawn) [7i, 5-(Carboxy(phenylamino)methyl)-2-hydroxybenzoic acid]	inhibition at 100 µM [4]: 0%
		O=C(O)c1cc(S(=O)(=O)c2ccccc2)ccc1O [7j, 2-Hydroxy-5-(phenylsulfonyl)benzoic acid]	inhibition at 100 µM [4]: 11 ± 10%
31 ± 2	100	O=C(Nc1cccc(C(F)(F)F)c1)c1cccc(NS(=O)(=O)c2ccc(O)c(C(=O)O)c2)c1 [7k]	
32 ± 2	100	O=C(O)c1cc(S(=O)(=O)Nc2cc(Cl)ccc2Oc2ccccc2)ccc1O [7l]	
31 ± 2	93	CCCCc1ccc(NS(=O)(=O)c2ccc(O)c(C(=O)O)c2)cc1 [7m]	
46 ± 2	88	O=C(O)c1cc(S(=O)(=O)Nc2ccc(I)cc2)ccc1O [7n]	
32 ± 2	84	O=C(O)c1cc(S(=O)(=O)Nc2ccc(Br)cc2)ccc1O [7o]	
46 ± 3	80 ± 9	COc1cccc(-c2cccc(NS(=O)(=O)c3ccc(O)c(C(=O)O)c3)c2)c1 [7p, 2-Hydroxy-5-(N-(3’-methoxy-[1,1’-biphenyl]-3-yl)sulfamoyl)benzoic acid]	
55 ± 3	67 ± 11	O=C(O)c1cc(S(=O)(=O)Nc2ccc(Cc3ccccc3)cc2)ccc1O [7q, 5-(N-(4-benzylphenyl)sulfamoyl)-2-hydroxybenzoic acid]	

IC50 [1] [µM]	inhibition at 100 µM [2] [%]	SMILES	other results
76 ± 4	64	O=C(O)c1cc(S(=O)(=O)Nc2cccc(Cl)c2)ccc1O [7r]	
67 ± 3	63	Cc1ccc(NS(=O)(=O)c2ccc(O)c(C(=O)O)c2)cc1 [7s]	
		O=C(O)c1cc(S(=O)(=O)Nc2ccc(Oc3ccccc3)cc2)ccc1O [7t, 2-Hydroxy-5-(N-(4-phenoxyphenyl)sulfamoyl)benzoic acid]	inhibition at 100 µM (100 μM compound, Figs 6, 8, 12, read-out: PfThrRS inhibition @100 μM, %): 58 ± 9%
89 ± 4	58	O=C(O)c1cc(S(=O)(=O)Nc2ccc3oc(=O)sc3c2)ccc1O [7u]	
84 ± 4	57	O=C(O)c1cc(S(=O)(=O)Nc2cccc3ccccc23)ccc1O [7v]	
	31 ± 10	O=C(O)c1cc(S(=O)(=O)Nc2ccc(Cl)cc2)ccc1O [7w]	
	7 ± 1	O=C(O)c1cc(S(=O)(=O)Nc2cccc(-c3ccccc3)c2)ccc1O [7x, 5-(N-([1,1’-biphenyl]-3-yl)sulfamoyl)-2-hydroxybenzoic acid]	
	35 ± 11	O=C(O)c1cc(S(=O)(=O)Nc2ccc(Oc3ccccc3)cc2)ccc1O [LVV-455]	
		Cc1c(C(=O)O)nnn1-c1sc2c(c1C(=O)O)CCCC2 [compound 8]	LE (ligand efficiency): 0.33; IC50 (verified HTVS hits, Fig 4): 10.3 ± 1.2 µM
		O=C(O)CCS(=O)(=O)c1ccc2c(c1)OCCCO2 [compound 9]	LE (ligand efficiency): 0.30; IC50 (verified HTVS hits, Fig 4): 75 ± 5 µM
		O=C(c1ccn(-c2ccc(F)cc2)n1)N1CCC(O)(C(=O)O)C1 (stereo not drawn) [compound 10]	LE (ligand efficiency): 0.29; IC50 (verified HTVS hits, Fig 4): 19 ± 2 µM
		Cc1nc2cc(NC(=O)C3C4C=CC(C4)C3C(=O)O)ccc2o1 (stereo not drawn) [compound 11]	LE (ligand efficiency): 0.27; IC50 (verified HTVS hits, Fig 4): 39 ± 4 µM
		O=C(O)CCc1nc2c(O)nc(SCc3ccccc3F)[nH]c-2nc1=O [compound 12]	LE (ligand efficiency): 0.27; IC50 (verified HTVS hits, Fig 4): 12.1 ± 1.6 µM
		O=C(O)c1cc(C2CCN(C(=O)C[C@H]3CCCCO3)CC2)no1 [compound 13]	LE (ligand efficiency): 0.26; IC50 (verified HTVS hits, Fig 4): 65 ± 5 µM
		Cc1csc2ncc(C(=O)N[C@H]3Cc4ccc(C(=O)O)cc4C3)n12 [compound 14]	LE (ligand efficiency): 0.25; IC50 (verified HTVS hits, Fig 4): 49 ± 5 µM
		CCCCC[C@H](O)CC[C@@H]1[C@H]2Cc3cccc(OCC(=O)O)c3C[C@H]2C[C@H]1O [compound 15, Remodulin, reference compound]	LE (ligand efficiency): 0.25; IC50 (verified HTVS hits, Fig 4): 12.5 ± 1.5 µM
